{"source": "patent US10729693B2", "about": "“Compositions and methods for the treatment of endometriosis” (PONCE MEDICAL SCHOOL FOUNDATION, INC., priority 2018, dated 2020)", "key": {"endometriosis vesicles": {"system": "endometriosis vesicles", "assay": "Autotransplantation rat model of endometriosis: vesicle development and morphology", "format": "in vivo", "conditions": "at 60 days", "description": "Experiment 2 consisted of 51 female rats that underwent endometriosis induction (n=40) or sham surgery (n=11). From the 40 rats that underwent endometriosis induction, 20 rats received the CRHR1 antagonist antalarmin intraperitoneally (i.p.) and 20 rats received vehicle control i.p. (10% Tween 80) from days 1-7 after surgery and endometriosis was allowed to progress until day 60 after surgery. The remaining 11 rats that underwent sham surgery were left untreated until day 60 after surgery. The sham group was used as a non-endometriosis baseline comparison. Only rats with regular estrous cycles were used in the experiments as assessed by vaginal smear lavage during the 7 days prior to surgery and on the day of sacrifice. […] Therefore, the final group numbers for endometriosis quantification and behavior were: endometriosis-antalarmin=20, endometriosis-vehicle=20, sham=10. Cyclicity was not assessed during the drug administration and was only collected before treatment and the day of sacrifice. This was decided to avoid any additional stressors not related to the drug administration per se that may affect results. The estrous cycle distribution for experiments 1 and 2 can be accessed in FIG. 14.\nFirst, endometriosis in female rats was induced by suturing uterine horn tissue next to the intestinal mesentery and allowed to progress for 7 days. After 7 days, it was determined that there was a significant increase in CRHR1 within endometriotic vesicles as compared to a normal uterus. Endometriosis was induced in a second group of rats, and further the second group of rats received consecutive doses of antalarmin of 20 milligrams per kilogram intraperitoneal (20 mg/kg, i.p.) during the first 7 days after surgery. A separate group of sham surgery rats served as controls.\nBriefly, rats were anesthetized with isoflurane and four pieces of the right uterine horn were auto transplanted to 4 different blood vessels in the intestinal mesentery. The control group was sham operated animals for which the right uterine horn was massaged for 2 minutes and sutures were placed in the intestinal mesenteric area with no uterine implants. For group 1, sham or endometriosis operated rats were allowed to progress for 7 days after surgery before sacrificed. For group 2, endometriosis was allowed to progress for 60 days before sacrificing.\nIt was verified that the animals were deeply anesthetized. Rats were weighed, and a cytological smear taken to verify stage of the estrous cycle. The peritoneal and thoracic cavities were opened, and a blood sample was collected directly from the heart. Following this, peritoneal fluid was collected using a sterile plastic pipette. Examination was directed to the presence of endometriosis vesicles. The implants that developed into vesicles were excised from the mesentery, weighed and measured using a digital caliper. Classification of vesicles was carried out and assigned the following grades: grade 1=disappeared; grade 2=0.01-1.99 mm; grade 3=2-4.49 mm; grade 4=4.5-5.99 mm; grade 5=6.0 mm or larger. In sham animals, empty suture sites were counted and collected. In addition to the endometriosis vesicles, the adrenal glands were collected, all surrounding fatty tissue was removed, and the cleared adrenal glands were weighed. Additionally, tissues from colon and the left uterine horn were collected. All tissues were flash frozen and stored at −80° until further processing."}, "anxiety behaviors": {"system": "anxiety behaviors", "assay": "Anxiety behaviors: open field and elevated zero maze", "format": "in vivo, rat", "conditions": "day 60; compared to sham group", "experimental": "One day before behavioral assessment and sacrifice a subset of rats (6 vehicle and 6 antalarmin) were subjected to an acute episode of swim stress of 10 min and compared to no stress controls to assess how rats respond to acute activation of the HPA axis. For this, animals were placed in a Plexiglas tank for 10 min in water at 25° C. Rats were towel dried and kept in warm cage after swim until fur dried. The next day, two behavioral tasks were used to assess anxiety behaviors. The open field test is used to quantify exploratory and locomotor activity of a rodent in an open arena. The apparatus used was a square wood arena (91×91×38 cm) with overhead light illumination and video monitoring to record animal activity using Any-Maze software (Stoelting, Wood Dale, Ill.). The following behaviors were quantified during 20 minutes: 1) total distance moved, 2) time spent moving, 3) time spent in the center of the arena, 4) time spent near the walls of the arena (defined by the 15 cm of floor arena closest to the walls) and 5) total fecal pellets. The more time the animal spends in the center of the arena compared to the space adjacent to the wall is considered as having less anxiety. At the end of the testing period, animals were returned to the home cage and after a 5-min break were tested in the elevated zero-maze.\nThe elevated zero-maze is very similar to the more traditional elevated plus maze test, with the advantage of not having a neutral (undefined) zone in the middle. The apparatus consisted of a circle with an arm width of 10 cm and elevated 40 cm from floor. […] Rats were allowed to run the maze for 5 consecutive minutes and recorded using the Any-Maze software (Stoelting, Wood Dale, Ill.). The following parameters were analyzed by the Any-Maze program: 1) total distance travelled in the maze, 2) time spent in the open/closed arms and 2) number of entries made by the rodent onto the open/closed arms. When 60% of the animal body entered the arm, the program counted is as an entry. In addition, total fecal pellets in the maze were quantified. […]"}, "implantation sites": {"system": "implantation sites", "conditions": "rodents; Fas-ligand immune tolerance dependent mechanism; cited from earlier work"}, "[1]": {"conditions": "20 mg/kg i.p. days 1-7 after surgery"}}}
{"smiles": "CCCCN(CC)c1nc(C)nc2c1c(C)c(C)n2-c1c(C)cc(C)cc1C", "note": "[antalarmin]", "values": [{"measurement": "average vesicle area per rat, difference to vehicle", "setting": "endometriosis vesicles; [1]", "value": 55, "unit": "%"}, {"measurement": "average vesicle volume per rat, difference to vehicle", "setting": "endometriosis vesicles; [1]", "value": 68, "unit": "%"}, {"measurement": "total weight of endometriosis vesicles (sum per rat), less than vehicle control (size decrease)", "setting": "endometriosis vesicles; [1]", "value": 67, "unit": "%"}, {"measurement": "decrease in the number of developed endometriosis vesicles", "setting": "endometriosis vesicles; 20 mg/kg i.p. days 1-7 after surgery, vs vehicle", "value": 30, "unit": "%"}, {"measurement": "vesicle classification by grade (1-5, length scale)", "setting": "endometriosis vesicles; vs vehicle treated control", "value": "a larger percentage of endometriosis vesicles that disappeared, as well as a reduced percentage of vesicles of grade 3 and 5"}, {"measurement": "open field: total distance traveled", "setting": "anxiety behaviors", "value": "significantly lower"}, {"measurement": "zero maze: locomotor activity", "setting": "anxiety behaviors", "value": "higher locomotor activity"}, {"measurement": "zero maze: time in the open arms", "setting": "anxiety behaviors", "value": "strong trend for both groups of rats with endometriosis to spend less time in the open arms"}, {"measurement": "reduction of the number of implantation sites", "setting": "implantation sites", "value": 70, "unit": "%"}]}
